According to PubChem BioAssay (NCI):
Where “and” joins values, the source holds several entries; their conditions need not be identical. Equal values may be shown once.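 Interpolation was linear, between the two tested concentrations surrounding the appropriate level; five concentrations were tested over 48 hours in 96-well plates. GI50 marks 50% less growth. The concentration for full growth arrest is given as TGI.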

Legend:
Experiment in all cases: growth of human tumour cells (NCI), 48 h
A498 renal = test system: A498 renal
DLD-1 colon = test system: DLD-1 colon
HCT-116 colon = test system: HCT-116 colon
KM20L2 colon = test system: KM20L2 colon
M14 melanoma = test system: M14 melanoma
MALME-3M melanoma = test system: MALME-3M melanoma
NCI-H23 lung = test system: NCI-H23 lung
SK-MEL-28 melanoma = test system: SK-MEL-28 melanoma
UACC-257 melanoma = test system: UACC-257 melanoma
MDA-MB-231 breast = test system: MDA-MB-231 breast

| SMILES | GI50 (A498 renal) [µM] | TGI (A498 renal) | GI50 (DLD-1 colon) [µM] | TGI (DLD-1 colon) [µM] | GI50 (HCT-116 colon) [µM] | TGI (HCT-116 colon) | GI50 (KM20L2 colon) [µM] | TGI (KM20L2 colon) | GI50 (M14 melanoma) [µM] | TGI (M14 melanoma) | GI50 (MALME-3M melanoma) [µM] | TGI (MALME-3M melanoma) | GI50 (NCI-H23 lung) [µM] | TGI (NCI-H23 lung) | GI50 (SK-MEL-28 melanoma) [µM] | TGI (SK-MEL-28 melanoma) | GI50 (UACC-257 melanoma) [µM] | TGI (UACC-257 melanoma) | GI50 (MDA-MB-231 breast) | TGI (MDA-MB-231 breast) |
| --- | --- | --- | --- | --- | --- | --- | --- | --- | --- | --- | --- | --- | --- | --- | --- | --- | --- | --- | --- | --- |
| CCC[CH2][Ge]([CH2]CCC)([CH2]CCC)[O]C(=O)C(OC(C)=O)c1ccccc1 (stereo not drawn) | 11.4 | 24.3 µM | 1.76 | 19 | 0.139 | 13.4 µM | 0.652 | 15.2 µM | 1.05 | 6.57 µM | 1.16 | 19.4 µM | 0.0395 | 6.24 µM | 8.12 | 22.1 µM | 0.246 | 11.5 µM |  |  |
| CN1CCN(CCCN2c3ccccc3Sc3ccc(C(F)(F)F)cc32)CC1 | 2.4 | 12.9 µM and 29.5 µM and 26.7 µM |  | 26.9 | 1.78 | 3.26 µM and 17.5 µM and 20.3 µM |  | 5.22 µM |  | 3.53 µM and 3.38 µM and 3.35 µM | 1.69 | 3.28 µM and 3.66 µM and 6.98 µM | 3.29 | 14.1 µM and 26.7 µM and 27.7 µM |  | 3.27 µM and 3.46 µM and 3.58 µM |  | 3.73 µM and 3.75 µM and 6.55 µM | 1.75 µM and 6.11 µM and 1.7 µM | 3.87 µM and 19.9 µM and 5.08 µM |
| C=C(CN(C)C)C(=O)c1ccc(OC)cc1 |  | 25.6 µM |  | 2.03 |  | 12.8 µM |  | 13.7 µM |  | 5.66 µM |  | 3.5 µM |  | 22.2 µM |  | 8.63 µM |  | 11.6 µM |  | 17.3 µM |
| N#Cc1nc(Nc2ccc(Cl)cc2)sc1N |  | 56 µM |  | > 100 |  | > 100 µM |  | > 52 µM |  | > 85.7 µM |  | 66.1 µM |  | 13.2 µM |  | > 70.8 µM |  | 31.1 µM |  |  |
| O=[N+]([O-])c1cc([N+](=O)[O-])c(C(Cl)C(Cl)c2ccccc2)cc1C(Cl)C(Cl)c1ccccc1 (stereo not drawn) |  | 3.33 µM |  | 3.27 |  | 2.69 µM |  | 4.22 µM |  | 2.93 µM |  | 3.31 µM |  | 3.72 µM |  | 3.95 µM |  | 4.09 µM |  |  |
| NC(=O)OCC(COc1ccc(Cl)cc1)OC(=O)c1cc([N+](=O)[O-])cc([N+](=O)[O-])c1 (stereo not drawn) |  | > 100 µM |  | > 100 |  | > 100 µM |  | > 100 µM |  | > 100 µM |  | > 100 µM |  | > 100 µM |  | > 100 µM |  | > 100 µM |  |  |
| COC(=O)C(C(=O)C(=O)Nc1ccc([N+](=O)[O-])cc1)c1nc2cc(C)c(C)cc2[nH]c1=O (stereo not drawn) |  | > 100 µM |  | > 100 |  | > 100 µM |  | > 100 µM |  | > 100 µM |  | > 100 µM |  | > 100 µM |  | > 100 µM |  | > 100 µM |  |  |
| CC(C)N(C(=O)C12C3C4C5C3C1(C#N)C5C42)C(C)C (stereo not drawn) |  | > 100 µM |  | > 100 |  | > 100 µM |  | > 100 µM |  | > 100 µM |  | > 100 µM |  | > 100 µM |  | > 100 µM |  | > 100 µM |  |  |
| COc1ccc(NC(=O)CC(=O)n2nc(-c3ccccc3)c(N=Nc3ccccc3C)c2-c2ccccc2)cc1 |  | 52.6 µM |  | 82.5 |  | 47.9 µM |  | > 100 µM |  | > 100 µM |  | 81.9 µM |  | 51.1 µM |  | > 63.2 µM |  | > 100 µM |  | > 100 µM |
| Cc1ccc(S(=O)(=O)NC(=O)C#CCOC2CCCCO2)cc1 (stereo not drawn) |  | > 100 µM |  | > 100 |  | > 100 µM |  | > 100 µM |  | > 100 µM |  | > 100 µM |  | > 100 µM |  | > 100 µM |  | > 100 µM |  |  |
| CCOC(=O)NN(C(=O)OCC)C(C(=O)c1ccc(Cl)cc1)=C1NCCN1 |  | > 100 µM |  | > 100 |  | > 100 µM |  | > 100 µM |  | > 100 µM |  | > 100 µM |  | > 100 µM |  | > 100 µM |  | > 100 µM |  |  |
| C/C=C1\C[C@@H]2C(OC)Nc3cc(O)c(OC)cc3C(=O)N2C1 (stereo partly drawn) |  | 0.0834 µM |  | 20 | 0.0172 |  |  | 0.0909 µM and 0.045 µM |  | 0.0428 µM and < 0.032 µM | 0.00501 | 0.0148 µM | 0.00262 | 0.00892 µM |  | 0.0295 µM and 0.0176 µM |  | 0.0413 µM and < 0.0126 µM | 0.0131 µM | 0.0626 µM and 0.375 µM |
| N#CC(C#N)=Cc1ccc(Oc2ccccc2)cc1 |  | > 100 µM |  | 20.6 |  | 44 µM |  | > 100 µM |  | 47.2 µM |  | 45.3 µM |  | 52.2 µM |  | 25.3 µM |  | > 71.3 µM |  |  |
